Measured values from patent US11702646B2, “Methods for modulating RNA splicing” (PTC THERAPEUTICS, INC., priority 2016, dated 2023).

Legend:
GM04856 lymphocyte cells = test: Endpoint RT-PCR for iExon-containing spliced product in GM04856 lymphocyte cells; assay type: cell-based; details: 10 nM, 1 μM or 10 μM, ~20 h, FIGS. 2A-D and 3-6A
Experimental: Cell treatment: GM04856 lymphocyte cells were diluted in a medium composed of DMEM, 10% FBS and 1× Pen/Strep to a concentration of 2.5e5 cells/mL. 2 mL (500K cells) were seeded in 6-well plates and recovered for 4 h at 37° C., 5% CO2. Compound dilutions were prepared as 2× compound stock in medium (e.g. for final 100 nM, make a 200 nM stock). After 4 h recovery, 2 mL of the 2× compound stock were added to each well, resulting in 4 mL/well with 1× final compound concentration. The cells were incubated for ˜20 h at 37° C., 5% CO2. After incubation, the cells were pelleted for 5 min at 1000 rpm. The supernatant was vacuum-removed and the cells were resuspended in 350 μl of RLT buffer (w/10 μl/mL beta-mercapto-ethanol, RNeasy kit). Total RNA was isolated using the RNeasy Mini Kit from Qiagen according to the manufacturer's instructions. The concentration of the resulting total RNA was determined using Nanodrop and diluted with water to a final concentration of 25 ng/μL.
Endpoint PCR: 20 μL endpoint RT-PCR5 were set up in 96-well plates using the AgPath-ID One-Step RT-PCR Reagents (Applied Biosystems) according to the manufacturer. Each reaction contained 200 nM forward primer, 200 nM reverse primer, and 50 ng total RNA. […] 10 μL of each RT-PCR reactions were analyzed on 2% 48-well E-Gels (Invitrogen) (pre-run 1 min, run 14 min) and imaged using an BioRad Gel Doc EZ Imager. […]

[1] = tested on: RNA transcripts of genes having intronic REMS elements; test: Change in isoform abundance and iExon/exon inclusion (ΔPSI, Fisher's Exact Test) in the presence of compound; assay type: cell-based; details: doses ranging from 0.3 μM to 3 μM, statistically significant adjusted Fisher's Exact Test p value
Experimental: Techniques known to one skilled in the art may be used to determine the amount of an RNA transcript(s). In some embodiments, the amount of one, two, three or more RNA transcripts is measured using deep sequencing, such as ILLUMINA® RNASeq, ILLUMINA® next generation sequencing (NGS), ION TORRENT™ RNA next generation sequencing, 454™ pyrosequencing, or Sequencing by Oligo Ligation Detection (SOLID™). In other embodiments, the amount of multiple RNA transcripts is measured using an exon array, such as the GENECHIP® human exon array. In certain embodiments, the amount of one, two, three or more RNA transcripts is determined by RT-PCR. In other embodiments, the amount of one, two, three or more RNA transcripts is measured by RT-qPCR or digital color-coded barcode technology. Techniques for conducting these assays are known to one skilled in the art. […]
Where “U” represents the value for probability of iExon inclusion (a+b)/2/[(a+b)/2+c]^U in the absence of the compound; and, where “C” represents the value for probability of iExon inclusion (a+b)/2/[(a+b)/2+c]^C in the presence of the compound. The values for “a” and “b” represent the number of reads supporting inclusion of an iExon in an RNA transcript. In other words, the “a” value is derived from the amount of reads for a first intronic nucleotide sequence comprising, in 5′ to 3′ order: a first exon having a 5′ splice site operably linked and upstream from a first intronic nucleotide sequence comprising a first branch point further operably linked and upstream from a first intronic 3′ splice site (upstream of the nascent iExon). The “b” value is derived from the amount of reads for a second intronic nucleotide sequence comprising, in 5′ to 3′ order: an iREMS sequence operably linked downstream from the first intronic 3′ splice site and upstream from a second intronic nucleotide sequence comprising a second branch point further operably linked and upstream from a second intronic 3′ splice site of a second exon. The value for “c” represents the number of reads supporting exclusion of an iExon. […]

In the case of `CCc1nc(C)cn2nc(-c3cc(=O)n4cc(C5CCN(C)CC5)cc(C)c4n3)cc12` [Compound 774], the “PCR product containing the intronic-derived exon (endpoint RT-PCR, agarose gel)” value (GM04856 lymphocyte cells) is reported as “appearance of a slower migrating PCR product containing the intronic-derived exon”, the “effect on change in isoform abundance as a result of having intronic REMS elements” value ([1]; genes of Table 7) is reported as “demonstrate an effect on change in isoform abundance” and the “effect on inclusion of an iExon with a corresponding change in isoform abundance” value ([1]; genes of Table 7a) is reported as “demonstrate an effect on inclusion of an iExon with a corresponding change in isoform abundance”. The “effect on inclusion of an exon with a corresponding change in isoform abundance” value ([1]; genes of Table 7b) was “demonstrate an effect on inclusion of an exon with a corresponding change in isoform abundance”.
